Data taken from US20130004959A1, “SCREENING DEVICE CONTAINING NANOG PROMOTER, SOX2 PROMOTER, LIN 28 PROMOTER, OCT4 PROMOTER AND LUCIFERASE GENE AND SCREENING METHOD THEREOF” (NATIONAL CENTRAL UNIVERSITY, priority 2011, published 2013).

Test system: Nanog promoter, Sox2 promoter, Lin28 promoter, Oct4 promoter
Experiment: Luciferase assay in the screening device (cells stably carrying pStable promoter-Luc reporter plasmids)
Type: cell-based, mouse
Settings: 2 mM VPA, reacted with cells for 24 hours, "24 hr cell"; C2C12 / P19 stable clones
Experimental: The screening is performed after the cells that express various promoters stably being prepared. […] The reporter plasmids whose backbone is constructed by the method mentioned above are transinfected individually into different dishes of host cells. After the reporter plasmids have been introduced into C2C12 or P19 cells, use G418 (Geneticin), a selective antibiotic for Neomycin resistance gene, to screen positive clones because pStable clones carry Neomycin resistance gene. After cell culture, transinfection, stable clone selection, and cells growing as colonies, stable clones in which various different promoters are expressed are obtained. In an embodiment of the present invention, pStable-Nanog-p-Luc plasmid, pStable-Sox2-p-Luc plasmid, pStable-Lin28-p-Luc plasmid and pStable-Oct4-p-Luc plasmid are introduced into both a C2C12 cell line and a P19 cell line. […] The C2C12 cell and P19 cell are cultured in an incubator under normal growth conditions (typically at 37° C., 5% CO2, and saturated humidity). Culture conditions of C2C12 cells and P19 cells are listed in the following list one: After the transfection processes, perform stable clone selection. The transfected cells are cultured in a culture medium containing 800 ug/ml G418. […] In an embodiment of the present invention, harvest cells after cells being reacted with 2 mM VPA for 24 hours and measure luminescence expression of cells. […]

Structure (SMILES): CCCC(CCC)C(=O)O [VPA, valporic acid]
- level of Luciferase (luminescence expression): higher level of Luciferase
